{"source": "ChEMBL document CHEMBL1201862", "about": "“PubChem BioAssay data set” (2004)", "key": {"SUMO E1/E2": {"target": "SUMO E1/E2 (Homo sapiens, UniProt P63279+Q9UBE0+Q9UBT2)", "sequence (Q9UBE0 whole entry)": "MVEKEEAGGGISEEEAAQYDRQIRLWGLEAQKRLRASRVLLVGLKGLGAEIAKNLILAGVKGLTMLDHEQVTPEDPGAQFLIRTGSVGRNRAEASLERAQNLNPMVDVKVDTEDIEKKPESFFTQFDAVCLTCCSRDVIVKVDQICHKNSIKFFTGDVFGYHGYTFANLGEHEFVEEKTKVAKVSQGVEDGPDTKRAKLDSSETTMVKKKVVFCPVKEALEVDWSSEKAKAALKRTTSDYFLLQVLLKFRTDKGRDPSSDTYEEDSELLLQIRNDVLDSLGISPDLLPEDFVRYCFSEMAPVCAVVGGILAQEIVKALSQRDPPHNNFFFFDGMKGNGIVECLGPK", "sequence (Q9UBT2 whole entry)": "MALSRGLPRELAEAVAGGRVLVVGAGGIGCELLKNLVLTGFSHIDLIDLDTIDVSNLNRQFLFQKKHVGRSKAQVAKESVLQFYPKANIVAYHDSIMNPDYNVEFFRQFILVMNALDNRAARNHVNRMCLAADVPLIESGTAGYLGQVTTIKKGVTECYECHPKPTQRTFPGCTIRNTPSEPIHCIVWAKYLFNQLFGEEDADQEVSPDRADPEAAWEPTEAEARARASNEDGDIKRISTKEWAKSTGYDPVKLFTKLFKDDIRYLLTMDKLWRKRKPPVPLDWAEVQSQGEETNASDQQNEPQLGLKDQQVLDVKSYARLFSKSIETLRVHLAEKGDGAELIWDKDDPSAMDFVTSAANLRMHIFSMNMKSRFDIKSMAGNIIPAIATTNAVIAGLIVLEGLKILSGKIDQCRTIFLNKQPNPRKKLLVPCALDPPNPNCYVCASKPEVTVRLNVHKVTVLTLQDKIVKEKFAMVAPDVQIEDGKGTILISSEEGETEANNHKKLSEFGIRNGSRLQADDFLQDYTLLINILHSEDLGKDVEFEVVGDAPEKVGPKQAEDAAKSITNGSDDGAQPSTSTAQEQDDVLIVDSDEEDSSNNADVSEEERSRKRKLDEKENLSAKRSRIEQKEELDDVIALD", "sequence (P63279 whole entry)": "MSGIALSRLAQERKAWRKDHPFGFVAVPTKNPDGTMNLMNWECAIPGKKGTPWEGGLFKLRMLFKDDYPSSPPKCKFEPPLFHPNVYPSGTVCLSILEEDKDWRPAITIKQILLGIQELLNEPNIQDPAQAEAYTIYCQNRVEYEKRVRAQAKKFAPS", "test": "SAR analysis of SUMOylation using HTRF in an in-Vitro dose response assay. [Related pubchem assays (depositor defined):AID2006, AID2011, AID2018, AID2069, AID2658]", "type": "functional"}, "[1]": {"target": "T1, Voltage-gated N-type calcium channel alpha-1B subunit/Amyloid beta A4 precursor protein-binding family A member 1 (Homo sapiens, UniProt Q00975+Q02410)", "T1 sequence (Q00975 whole entry)": "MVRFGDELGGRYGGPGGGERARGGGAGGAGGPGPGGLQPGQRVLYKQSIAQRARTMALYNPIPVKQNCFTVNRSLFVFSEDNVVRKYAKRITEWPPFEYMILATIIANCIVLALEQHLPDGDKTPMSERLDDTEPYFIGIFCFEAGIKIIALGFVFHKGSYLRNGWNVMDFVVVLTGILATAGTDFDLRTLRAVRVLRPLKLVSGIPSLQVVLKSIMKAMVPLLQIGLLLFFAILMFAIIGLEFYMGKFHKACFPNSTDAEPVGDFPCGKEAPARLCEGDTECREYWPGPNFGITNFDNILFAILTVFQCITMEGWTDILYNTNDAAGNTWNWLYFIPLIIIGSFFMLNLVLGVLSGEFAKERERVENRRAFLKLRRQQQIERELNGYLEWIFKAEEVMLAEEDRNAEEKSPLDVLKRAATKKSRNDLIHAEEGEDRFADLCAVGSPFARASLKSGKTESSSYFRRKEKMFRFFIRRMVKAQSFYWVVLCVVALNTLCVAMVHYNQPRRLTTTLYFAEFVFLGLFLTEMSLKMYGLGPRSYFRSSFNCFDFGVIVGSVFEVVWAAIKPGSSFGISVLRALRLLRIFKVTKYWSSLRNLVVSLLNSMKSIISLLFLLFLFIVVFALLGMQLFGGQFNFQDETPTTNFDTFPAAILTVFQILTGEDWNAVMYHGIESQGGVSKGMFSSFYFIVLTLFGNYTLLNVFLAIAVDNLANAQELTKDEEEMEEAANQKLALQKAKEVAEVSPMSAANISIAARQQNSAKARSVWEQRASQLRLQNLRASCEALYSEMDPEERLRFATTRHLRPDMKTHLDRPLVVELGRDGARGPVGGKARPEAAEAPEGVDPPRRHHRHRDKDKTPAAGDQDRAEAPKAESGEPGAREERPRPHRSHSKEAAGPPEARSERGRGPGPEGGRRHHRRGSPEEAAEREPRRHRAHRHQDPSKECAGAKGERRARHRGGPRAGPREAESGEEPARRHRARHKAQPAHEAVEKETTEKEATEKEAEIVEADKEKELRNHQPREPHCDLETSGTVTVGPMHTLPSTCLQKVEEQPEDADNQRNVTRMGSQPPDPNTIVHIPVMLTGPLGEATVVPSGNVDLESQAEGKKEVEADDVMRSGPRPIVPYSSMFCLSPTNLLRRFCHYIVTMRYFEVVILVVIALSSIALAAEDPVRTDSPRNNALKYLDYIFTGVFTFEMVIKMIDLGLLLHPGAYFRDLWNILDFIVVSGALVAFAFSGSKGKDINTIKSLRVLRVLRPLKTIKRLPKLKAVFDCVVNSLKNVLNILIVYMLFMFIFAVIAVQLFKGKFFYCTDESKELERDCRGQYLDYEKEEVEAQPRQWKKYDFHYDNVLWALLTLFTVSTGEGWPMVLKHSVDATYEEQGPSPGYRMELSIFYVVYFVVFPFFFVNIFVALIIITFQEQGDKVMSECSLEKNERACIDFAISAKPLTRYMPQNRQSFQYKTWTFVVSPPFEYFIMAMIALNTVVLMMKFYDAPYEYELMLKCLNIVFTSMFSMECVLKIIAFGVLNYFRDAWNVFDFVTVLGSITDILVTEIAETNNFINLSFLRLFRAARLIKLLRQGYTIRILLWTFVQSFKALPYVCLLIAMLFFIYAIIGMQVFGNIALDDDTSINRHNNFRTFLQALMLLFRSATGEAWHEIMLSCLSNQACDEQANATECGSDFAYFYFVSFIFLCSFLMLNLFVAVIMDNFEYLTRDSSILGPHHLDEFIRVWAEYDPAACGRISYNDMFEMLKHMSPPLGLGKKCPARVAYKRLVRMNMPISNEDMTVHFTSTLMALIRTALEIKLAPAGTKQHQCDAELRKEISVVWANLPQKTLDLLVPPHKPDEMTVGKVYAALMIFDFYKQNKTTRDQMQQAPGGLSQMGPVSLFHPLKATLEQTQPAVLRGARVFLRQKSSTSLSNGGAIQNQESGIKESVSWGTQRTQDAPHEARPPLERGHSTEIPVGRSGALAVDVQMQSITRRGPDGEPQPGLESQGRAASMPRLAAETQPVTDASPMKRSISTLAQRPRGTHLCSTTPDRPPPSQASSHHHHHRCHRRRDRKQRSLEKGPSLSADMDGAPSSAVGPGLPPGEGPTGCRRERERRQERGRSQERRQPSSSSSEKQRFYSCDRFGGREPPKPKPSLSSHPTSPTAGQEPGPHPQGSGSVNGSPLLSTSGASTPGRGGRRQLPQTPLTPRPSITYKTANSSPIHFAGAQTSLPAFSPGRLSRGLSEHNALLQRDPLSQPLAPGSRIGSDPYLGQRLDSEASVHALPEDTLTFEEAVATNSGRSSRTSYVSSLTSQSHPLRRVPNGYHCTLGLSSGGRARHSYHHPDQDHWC", "T1 sequence (Q02410 whole entry)": "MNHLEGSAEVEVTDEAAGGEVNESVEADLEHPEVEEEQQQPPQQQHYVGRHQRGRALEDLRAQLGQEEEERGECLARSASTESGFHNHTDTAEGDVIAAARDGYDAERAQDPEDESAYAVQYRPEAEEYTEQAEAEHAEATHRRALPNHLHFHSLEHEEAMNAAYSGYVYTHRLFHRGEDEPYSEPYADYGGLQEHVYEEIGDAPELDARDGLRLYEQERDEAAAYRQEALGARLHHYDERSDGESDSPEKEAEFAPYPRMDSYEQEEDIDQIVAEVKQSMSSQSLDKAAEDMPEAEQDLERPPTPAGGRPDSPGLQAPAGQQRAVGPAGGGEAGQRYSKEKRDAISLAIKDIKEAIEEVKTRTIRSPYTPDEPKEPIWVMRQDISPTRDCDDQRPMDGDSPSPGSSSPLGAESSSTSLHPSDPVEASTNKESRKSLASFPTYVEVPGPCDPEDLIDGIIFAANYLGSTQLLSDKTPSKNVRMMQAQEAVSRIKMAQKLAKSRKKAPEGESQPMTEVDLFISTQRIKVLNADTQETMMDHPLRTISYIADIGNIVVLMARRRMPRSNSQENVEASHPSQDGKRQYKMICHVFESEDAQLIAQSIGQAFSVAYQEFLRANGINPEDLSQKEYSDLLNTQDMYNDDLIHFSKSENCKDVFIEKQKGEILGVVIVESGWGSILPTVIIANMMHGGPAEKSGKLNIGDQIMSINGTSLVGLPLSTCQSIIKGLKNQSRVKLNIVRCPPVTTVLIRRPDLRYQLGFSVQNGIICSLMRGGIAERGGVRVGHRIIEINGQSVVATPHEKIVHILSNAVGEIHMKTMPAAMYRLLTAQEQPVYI", "test": "disruptors of Mint-PDZ/N-type channel peptide interaction – biochemical, HTRF, SAR follow-up (AID 2489)", "type": "functional"}, "[2]": {"target": "T1, Voltage-gated N-type calcium channel alpha-1B subunit/Amyloid beta A4 precursor protein-binding family A member 1", "test": "disruptors of Mint-PDZ/N-type channel peptide interaction – biochemical, HTRF, set 2, SAR follow-up (AID 434980)", "type": "functional"}, "Phosphomannomutase 2": {"target": "Phosphomannomutase 2 (Homo sapiens, UniProt O15305)", "sequence (O15305 whole entry)": "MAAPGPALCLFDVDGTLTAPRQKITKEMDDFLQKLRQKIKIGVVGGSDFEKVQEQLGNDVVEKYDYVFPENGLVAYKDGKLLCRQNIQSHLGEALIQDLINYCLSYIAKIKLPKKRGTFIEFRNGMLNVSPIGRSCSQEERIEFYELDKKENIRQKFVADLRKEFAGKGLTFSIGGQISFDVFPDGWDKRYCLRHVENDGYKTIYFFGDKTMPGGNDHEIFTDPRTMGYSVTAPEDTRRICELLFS", "test": "Counter screen SAR assay for PMM2 inhibitors via a fluorescence intensity assay. [Related pubchem assays (depositor defined):AID1545, AID1574]"}, "[3]": {"target": "T2, Mannose-6-phosphate isomerase (Homo sapiens, UniProt P34949)", "T2 sequence (P34949 whole entry)": "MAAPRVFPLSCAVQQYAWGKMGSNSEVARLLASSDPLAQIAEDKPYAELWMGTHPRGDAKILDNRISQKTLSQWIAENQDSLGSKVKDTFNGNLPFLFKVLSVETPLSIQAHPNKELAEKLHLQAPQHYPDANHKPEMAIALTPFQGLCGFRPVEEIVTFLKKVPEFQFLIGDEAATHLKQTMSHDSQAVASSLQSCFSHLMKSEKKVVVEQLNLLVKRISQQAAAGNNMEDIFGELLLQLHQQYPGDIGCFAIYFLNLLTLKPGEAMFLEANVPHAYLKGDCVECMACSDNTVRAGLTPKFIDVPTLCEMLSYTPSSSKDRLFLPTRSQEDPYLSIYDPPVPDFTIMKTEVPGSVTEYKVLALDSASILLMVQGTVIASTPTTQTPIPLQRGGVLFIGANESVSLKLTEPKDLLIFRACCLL", "test": "phosphomannose isomerase inhibition – biochemical, fluorescence intensity, confirmation (AID 1535)"}, "Cytochrome P450 1A2": {"target": "T3, Cytochrome P450 1A2 (Homo sapiens, UniProt P05177)", "T3 sequence (P05177 whole entry)": "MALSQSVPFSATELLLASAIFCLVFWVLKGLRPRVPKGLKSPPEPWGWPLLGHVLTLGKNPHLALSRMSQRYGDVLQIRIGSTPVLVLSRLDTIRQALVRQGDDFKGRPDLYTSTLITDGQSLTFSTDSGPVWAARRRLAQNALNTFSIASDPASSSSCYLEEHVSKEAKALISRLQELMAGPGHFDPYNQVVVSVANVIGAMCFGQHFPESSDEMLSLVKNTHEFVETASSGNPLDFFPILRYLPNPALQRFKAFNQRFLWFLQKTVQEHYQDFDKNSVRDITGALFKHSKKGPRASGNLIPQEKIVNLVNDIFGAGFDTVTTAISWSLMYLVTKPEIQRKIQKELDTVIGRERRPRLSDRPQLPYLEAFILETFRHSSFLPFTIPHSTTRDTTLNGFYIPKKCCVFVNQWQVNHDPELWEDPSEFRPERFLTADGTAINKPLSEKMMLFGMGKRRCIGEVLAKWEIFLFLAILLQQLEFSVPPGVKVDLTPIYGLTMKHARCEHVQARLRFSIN"}}, "note": "“And” between values parts separate entries of the source, which are not always exact repeats. Identical values can stand only once. The source made the active and inactive calls. Cut-off read from the data, not from the text of the source, for most assays here: actives have a measured IC50 and inactives only a lower limit.", "data": [{"smiles": "O=C(COC(=O)c1cc(-c2ccco2)nc2ccccc12)NCc1ccc(Cl)cc1", "values": [{"measurement": "IC50", "setting": "SUMO E1/E2", "value": "2.84 µM (active) and 4.46 µM (active)"}, {"measurement": "IC50", "setting": "[1]", "value": "10.4 µM (active) and > 56.8 µM (inactive)"}, {"measurement": "IC50", "setting": "[2]", "value": "7.73 µM (active) and 9.82 µM (active)"}]}, {"smiles": "Clc1nss/c1=N\\c1nncs1", "values": [{"measurement": "IC50", "setting": "Phosphomannomutase 2", "value": "> 100 µM (inactive)"}, {"measurement": "IC50", "setting": "[3]", "value": "3.1 µM (active) and 2.3 µM (active)"}]}, {"smiles": "CC(C)CN1CC2(CCN(C(=O)c3csnn3)CC2)C1", "values": [{"measurement": "AC50", "setting": "Cytochrome P450 1A2", "value": "inactive"}]}]}
